In patent US20230203095A1, “BIOLOGICAL PEPTIDE FOR TREATING LUNG DISEASES AND APPLICATION THEREOF” (SHANGHAI INSTITUTE OF PHARMACEUTICAL INDUSTRY CO., LTD., priority 2019, published 2023):
Read-outs that look alike come from different tables or passages of the source. Square brackets hold non-standard residues; d marks the D form. Peptide text beside a SMILES is read from it.

Columns and labels:
[1] = Stability of each 7-peptide compound in rat whole blood; format: in vitro ADME; conditions: for recovery: read-out: Recovery rate (%) M±SD
Procedure: Preparation of the test product: SP and SIPI-D00 were dissolved and diluted with an appropriate amount of 50% acetonitrile water containing 0.1% formic acid to obtain a working solution with a concentration of 200 µg/mL.
• 1) Fresh rat whole blood was added to the EP tube, and shaken gently to mix well; • 2) The EP tube was pre-incubated in a 37° C. water bath for 5 minutes; • 3) Each compound was added to start the reaction and continued to incubate at 37° C.; • 4) 50 µL sample was taken from the sample tube at 0, 2 min, 5 min, 10 min, 30 min, and 60 min, respectively, into the stop tube, 50 µL of ice-cold 7% perchloric acid was added, and shaken to stop the reaction; • 5) Sample was centrifuged at 13000 r/min for 10 min, 75 µL supernatant was aspirated, 60 µL1.25% ammonia water was added and mixed well. After filtered with […] microporous membrane, 20 µL sample was taken for LC-MS/MS analysis.

[2] = system: ConA-stimulated mouse splenocytes; assay: Secretion of IL-4 from mouse splenocytes stimulated by ConA (ELISA); format: cell-based, BALB/C mice; conditions: for IL-4 levels of polypeptides: ConA 5 µg/mL, 24 h
Procedure: (§1) Three BALB/C mice were sacrificed by cervical dislocation after anesthesia. Then mice were immersed in 75% ethanol for 5 minutes. After dissection and spleen extraction, spleen lymphocytes were prepared. […] Different concentrations of test substances were added to each well, and duplicate wells were set for each concentration, and the final concentration of ConA was 5 µg/mL. The plate was incubated in a 37° C. 5% CO2 incubator for 24 h, the drug-containing cell suspension was aspirated from each well, then centrifuged at 200 g for 15 min at 4° C. The supernatant was taken, and mouse IL-4 Elisa kit was used to detect IL- 4 content.
as §1, with “each concentration was” for “duplicate wells were”, “up as triple wells,” for “for each concentration,”, “kit (mouse IL-4 Elisa kit)” for “kit”

[3] = rat whole blood, 37° C., 1000 ng/mL, incubation time 60 min

recovery ([1]; rat whole blood, 37° C., 1000 ng/mL, incubation time 0 min): 100% | recovery ([1]; rat whole blood, 37° C., 1000 ng/mL, incubation time 2 min): 97.9 ± 7.4% | recovery ([1]; rat whole blood, 37° C., 1000 ng/mL, incubation time 5 min): 101 ± 10.7% | recovery ([1]; rat whole blood, 37° C., 1000 ng/mL, incubation time 10 min): 99.6 ± 1.3% | recovery ([1]; rat whole blood, 37° C., 1000 ng/mL, incubation time 30 min): 97.9 ± 2.5% | Recovery rate (%) M±SD [1, 3]: 103±3.9% | recovery [1, 3]: 100%
Compound: C[C@H](O)[C@@H](NC(=O)[C@@H](Cc1ccc(O)cc1)NC(=O)[C@H](NC(=O)[C@@H](CO)NC(=O)CN)[C@H](C)O)C(=O)N[C@H](CCC(N)=O)C(=O)NCC(=O)O [SIPI-D00, GSTYTQG] (H-G[dS][dT][dY][dT][dQ]G-OH)
stability in whole blood ([1]; compared with SP peptide): significantly higher than that of SP peptide | secretion of IL-4 by ConA-stimulated mouse spleen lymphocytes (in words) [2]: significantly inhibit | Inhibitory rate of polypeptide on IL-4 secretion ([2]; peptide concentration 1 µg/mL): 34.96% | IL-4 levels of polypeptides ([2]; peptide concentration 1 µg/mL): 14.05 ± 2.19 pg/mL | Inhibitory rate of polypeptide on IL-4 secretion ([2]; peptide concentration 3 µg/mL): 59.68% | IL-4 levels of polypeptides ([2]; peptide concentration 3 µg/mL): 8.71 ± 0.95 pg/mL | Inhibitory rate of polypeptide on IL-4 secretion ([2]; peptide concentration 10 µg/mL): 71.00% | IL-4 levels of polypeptides ([2]; peptide concentration 10 µg/mL): 6.26 ± 0.36 pg/mL | Inhibitory rate of polypeptide on IL-4 secretion ([2]; peptide concentration 30 µg/mL): 72.82% | IL-4 levels of polypeptides ([2]; peptide concentration 30 µg/mL): 5.87 ± 0.49 pg/mL
